Test results from patent publication US4927922A, “7β-(substituted)amino-3-substituted cephalosporanic acids and esters” (American Cyanamid Company, priority 1988, dated 1990).
Converted amounts (≈) assume the structure as drawn. Like-named read-outs stand apart in the source and are kept apart here.

Tests used:
Test in all cases: in vitro agar dilution test (MIC)
Format in all cases: cell-based
[1] = system: Acinetobacter calcoaceticus MOR 84-43; conditions: MOR8443
Experimental: (§1) The compounds of the present invention are active antibacterial agents as established in the in vitro agar dilution test using Mueller-Hinton agar. The test compounds were dissolved in a mixture of dimethyl sulfoxide and aqueous sodium bicarbonate and applied as 1 ml of drug solution plus 9 ml of agar per plate. The innoculum was a 5 hour TSB shake culture diluted to 10^-2 with Mueller-Hinton broth and applied to the plates with a Steers' Replicator.
(§2) The results of this test on representative compounds of this invention (identified by Example Number) against a variety of microorganisms appear in Tables I and II in terms of minimal inhibitory concentration (MIC) in mcg/ml together with Cefotaxime, Cephalothin and Ampicillin as positive controls.

[2] = system: Enterobacter aerogenes VGH 84-36; conditions: Klebsiella aerogenes, VGH8436
Experimental: as §1, §2

[3] = system: Enterobacter cloacae K 84-10; conditions: K8410
Experimental: as §1, §2

[4] = system: Enterobacter cloacae VGH 84-37; conditions: VGH8437
Experimental: as §1, §2

[5] = system: Enterococcus VGH 84-65; conditions: VGH8465
Experimental: as §1, §2

[6] = system: Escherichia coli ATCC 25922; conditions: ATCC25922, Mueller-Hinton agar, Table II
Experimental: as §1, §2

[7] = system: Escherichia coli CMC 84-11; conditions: CMC8411, Mueller-Hinton agar
Experimental: as §1, §2

[8] = system: Escherichia coli CMC 84-16; conditions: CMC8416
Experimental: as §1, §2

[9] = system: Escherichia coli No. 311 N.A.; conditions: Mueller-Hinton agar
Experimental: as §1, §2

[10] = system: Escherichia coli No. 311(Parent); conditions: Mueller-Hinton agar
Experimental: as §1, §2

[11] = system: Klebsiella oxytoca MOR 84-28; conditions: MOR8428
Experimental: as §1, §2

[12] = system: Klebsiella pneumoniae AD (MP)
Experimental: as §1, §2

[13] = system: Klebsiella pneumoniae MOR 84-4; conditions: MOR844
Experimental: as §1, §2

[14] = system: Morganella morganii CMC 84-37; conditions: CMC8437
Experimental: as §1, §2

[15] = system: Morganella morganii VGH 84-11; conditions: VGH8411
Experimental: as §1, §2

[16] = system: Proteus rettgheri CMC 84-41
Experimental: as §1, §2

[17] = system: Pseudomonas aeruginosa 12-4-4 (MP)
Experimental: as §1, §2

[18] = system: Pseudomonas aeruginosa VGH 84-4; conditions: VGH844
Experimental: as §1, §2

[19] = system: Serratia marcesans F 35 (MP)
Experimental: as §1, §2

[20] = system: Serratia marcesans K 84-18; conditions: K8418
Experimental: as §1, §2

[21] = system: Staphylococcus aureus ATCC 25923; conditions: ATCC25923
Experimental: as §1, §2

[22] = system: Staphylococcus aureus CMC 83-128; conditions: CMC83128
Experimental: as §1, §2

[23] = system: Staphylococcus aureus CMC 83-131; conditions: CMC83131
Experimental: as §1, §2

[24] = system: Staphylococcus aureus CMC 83-132; conditions: CMC83132
Experimental: as §1, §2

[25] = system: Staphylococcus aureus Smith (MP)
Experimental: as §1, §2

[26] = system: Staphylococcus epidermidis CMC 83-135; conditions: CMC83135
Experimental: as §1, §2

[27] = system: Staphylococcus epidermidis IO 83-58; conditions: IO8358
Experimental: as §1, §2

[28] = system: Staphylococcus saprophyticus VGH 84-50; conditions: VGH8450
Experimental: as §1, §2

[29] = Acinetobacter calcoaceticus MOR 84-43, Mueller-Hinton agar, read-out: MIC
[30] = Enterococcus VGH 84-65, Mueller-Hinton agar, read-out: MIC
[31] = Klebsiella oxytoca MOR 84-28, Mueller-Hinton agar, read-out: MIC
[32] = Klebsiella pneumoniae AD (MP), Mueller-Hinton agar, Table II, read-out: MIC
[33] = Klebsiella pneumoniae MOR 84-4, Mueller-Hinton agar, read-out: MIC
[34] = Proteus rettgheri CMC 84-41, Mueller-Hinton agar, read-out: MIC
[35] = Serratia marcesans K 84-18, Mueller-Hinton agar, read-out: MIC
[36] = Staphylococcus aureus ATCC 25923, Mueller-Hinton agar, Table II, read-out: MIC
[37] = Staphylococcus aureus CMC 83-128, Mueller-Hinton agar, read-out: MIC
[38] = Staphylococcus aureus CMC 83-131, Mueller-Hinton agar, read-out: MIC
[39] = Staphylococcus aureus CMC 83-132, Mueller-Hinton agar, read-out: MIC
[40] = Staphylococcus aureus Smith (MP), Mueller-Hinton agar, Table II, read-out: MIC
[41] = Staphylococcus epidermidis CMC 83-135, Mueller-Hinton agar, read-out: MIC
[42] = Staphylococcus epidermidis IO 83-58, Mueller-Hinton agar, read-out: MIC
[43] = Staphylococcus saprophyticus VGH 84-50, Mueller-Hinton agar, read-out: MIC
[44] = Escherichia coli CMC 84-16, Mueller-Hinton agar, read-out: MIC
[45] = Enterobacter aerogenes VGH 84-36, Mueller-Hinton agar, read-out: MIC
[46] = Enterobacter cloacae K 84-10, Mueller-Hinton agar, read-out: MIC
[47] = Enterobacter cloacae VGH 84-37, Mueller-Hinton agar, read-out: MIC
[48] = Morganella morganii CMC 84-37, Mueller-Hinton agar, read-out: MIC
[49] = Morganella morganii VGH 84-11, Mueller-Hinton agar, read-out: MIC
[50] = Pseudomonas aeruginosa 12-4-4 (MP), Mueller-Hinton agar, Table II, read-out: MIC
[51] = Pseudomonas aeruginosa VGH 84-4, Mueller-Hinton agar, read-out: MIC
[52] = Serratia marcesans F 35 (MP), Mueller-Hinton agar, read-out: MIC

SMILES: CC1(C)S[C@@H]2[C@H](NC(=O)[C@H](N)c3ccccc3)C(=O)N2[C@H]1C(=O)O [Ampicillin, reference compound]
- MIC [1, 29]: 32 µg/mL (≈ 91.6 µM)
- MIC [2]: 256 µg/mL (≈ 733 µM)
- MIC ([3]; Enterobacter cloacae): > 256 µg/mL
- MIC ([4]; Enterobacter cloacae): > 256 µg/mL
- MIC [5, 30]: 1 µg/mL (≈ 2.86 µM)
- MIC [6]: 4 µg/mL (≈ 11.4 µM)
- MIC [7]: 4 µg/mL (≈ 11.4 µM)
- MIC ([8]; Escherichia coli): > 256 µg/mL
- MIC [9]: 2 µg/mL (≈ 5.72 µM)
- MIC [10]: 2 µg/mL (≈ 5.72 µM)
- MIC [11, 31]: 32 µg/mL (≈ 91.6 µM)
- MIC [12, 32]: 0.25 µg/mL (≈ 0.715 µM)
- MIC [13, 33]: 32 µg/mL (≈ 91.6 µM)
- MIC ([14]; Morganella morganii): 256 µg/mL (≈ 733 µM)
- MIC ([15]; Morganella morganii): > 256 µg/mL
- MIC [16, 34]: 0.5 µg/mL (≈ 1.43 µM)
- MIC ([17]; Pseudomonas aeruginosa): > 256 µg/mL
- MIC ([18]; Pseudomonas aeruginosa): > 256 µg/mL
- MIC ([19]; Serratia): > 256 µg/mL
- MIC [20, 35]: 64 µg/mL (≈ 183 µM)
- MIC [21, 36]: ≤ 0.12 µg/mL
- MIC [22, 37]: ≤ 0.12 µg/mL
- MIC [23, 38]: 2 µg/mL (≈ 5.72 µM)
- MIC [24, 39]: 1 µg/mL (≈ 2.86 µM)
- MIC [25, 40]: ≤ 0.12 µg/mL
- MIC [26, 41]: ≤ 0.12 µg/mL
- MIC [27, 42]: 16 µg/mL (≈ 45.8 µM)
- MIC [28, 43]: ≤ 0.12 µg/mL

SMILES: CC(=O)OCC1=C(C(=O)O)N2C(=O)[C@@H](NC(=O)Cc3cccs3)[C@H]2SC1 [Cephalothin, reference compound]
- MIC ([1]; Acinetobacter calcoaceticus): > 256 µg/mL
- MIC [2]: > 256 µg/mL
- MIC ([3]; Enterobacter cloacae): > 256 µg/mL
- MIC ([4]; Enterobacter cloacae): > 256 µg/mL
- MIC ([5]; Enterococcus): 32 µg/mL (≈ 80.7 µM)
- MIC [6]: 16 µg/mL (≈ 40.4 µM)
- MIC [7]: 8 µg/mL (≈ 20.2 µM)
- MIC [8, 44]: 16 µg/mL (≈ 40.4 µM)
- MIC [9]: 8 µg/mL (≈ 20.2 µM)
- MIC [10]: 8 µg/mL (≈ 20.2 µM)
- MIC ([11]; Klebsiella oxytoca): > 256 µg/mL
- MIC ([12]; Klebsiella pneumoniae): 1 µg/mL (≈ 2.52 µM)
- MIC ([13]; Klebsiella pneumoniae): 2 µg/mL (≈ 5.04 µM)
- MIC ([14]; Morganella morganii): > 256 µg/mL
- MIC ([15]; Morganella morganii): > 256 µg/mL
- MIC [16]: 4 µg/mL (≈ 10.1 µM)
- MIC ([17]; Pseudomonas aeruginosa): > 256 µg/mL
- MIC ([18]; Pseudomonas aeruginosa): > 256 µg/mL
- MIC ([19]; Serratia): > 256 µg/mL
- MIC ([20]; Serratia): > 256 µg/mL
- MIC ([21]; Staphylococcus aureus): 0.25 µg/mL (≈ 0.631 µM)
- MIC ([22]; Staphylococcus aureus): ≤ 0.12 µg/mL
- MIC ([23]; Staphylococcus aureus): 32 µg/mL (≈ 80.7 µM)
- MIC ([24]; Staphylococcus aureus): 32 µg/mL (≈ 80.7 µM)
- MIC ([25]; Staphylococcus aureus): ≤ 0.12 µg/mL
- MIC ([26]; Staphylococcus epidermidis): ≤ 0.12 µg/mL
- MIC ([27]; Staphylococcus epidermidis): 0.25 µg/mL (≈ 0.631 µM)
- MIC ([28]; Staphylococcus saprophyticus): 0.25 µg/mL (≈ 0.631 µM)

SMILES: Cc1snnc1SCC1=C(C(=O)O)N2C(=O)[C@@H](NC(=O)Cc3cccs3)[C@H]2SC1 [Example 8, (6R-trans)-3-[[(5-Methyl-1,2,3-thiadiazol-4-yl)thio]methyl]-8-oxo-7-[(2-thienylacetyl)amino]-5-thia-1-azabicyclo[4.2.0]oct-2-ene-2-carboxylic acid]
- MIC [1, 29]: > 256 µg/mL
- MIC [2, 45]: 256 µg/mL (≈ 546 µM)
- MIC [3, 46]: > 256 µg/mL
- MIC [4, 47]: > 256 µg/mL
- MIC [5, 30]: 32 µg/mL (≈ 68.3 µM)
- MIC [6]: 64 µg/mL (≈ 137 µM)
- MIC [7]: 64 µg/mL (≈ 137 µM)
- MIC [8, 44]: 64 µg/mL (≈ 137 µM)
- MIC [9]: 32 µg/mL (≈ 68.3 µM)
- MIC [10]: 32 µg/mL (≈ 68.3 µM)
- MIC [11, 31]: 256 µg/mL (≈ 546 µM)
- MIC [12, 32]: 8 µg/mL (≈ 17.1 µM)
- MIC [13, 33]: 32 µg/mL (≈ 68.3 µM)
- MIC [14, 48]: > 256 µg/mL
- MIC [15, 49]: > 256 µg/mL
- MIC [16, 34]: 2 µg/mL (≈ 4.27 µM)
- MIC [17, 50]: > 256 µg/mL
- MIC [18, 51]: > 256 µg/mL
- MIC [19, 52]: > 256 µg/mL
- MIC [20, 35]: > 256 µg/mL
- MIC [21, 36]: 0.5 µg/mL (≈ 1.07 µM)
- MIC [22, 37]: 1 µg/mL (≈ 2.13 µM)
- MIC [23, 38]: 32 µg/mL (≈ 68.3 µM)
- MIC [24, 39]: 32 µg/mL (≈ 68.3 µM)
- MIC [25, 40]: ≤ 0.12 µg/mL
- MIC [26, 41]: ≤ 0.12 µg/mL
- MIC [27, 42]: 2 µg/mL (≈ 4.27 µM)
- MIC [28, 43]: 1 µg/mL (≈ 2.13 µM)

SMILES: CCc1snnc1SCC1=C(C(=O)O)N2C(=O)[C@@H](NC(=O)Cc3cccs3)[C@H]2SC1 [Example 10, (6R-trans)-3-[[(5-Ethyl-1,2,3-thiadiazol-4-yl)thio]methyl]-8-oxo-7-[(2-thienylacetyl)amino]-5-thia-1-azabicyclo[4.2.0]oct-2-ene-2-carboxylic acid]
- MIC [1, 29]: > 256 µg/mL
- MIC [2, 45]: > 256 µg/mL
- MIC [3, 46]: > 256 µg/mL
- MIC [4, 47]: > 256 µg/mL
- MIC [5, 30]: 32 µg/mL (≈ 66.3 µM)
- MIC [6]: 64 µg/mL (≈ 133 µM)
- MIC [7]: 128 µg/mL (≈ 265 µM)
- MIC [8, 44]: 128 µg/mL (≈ 265 µM)
- MIC [9]: 64 µg/mL (≈ 133 µM)
- MIC [10]: 64 µg/mL (≈ 133 µM)
- MIC [11, 31]: 128 µg/mL (≈ 265 µM)
- MIC [12, 32]: 16 µg/mL (≈ 33.2 µM)
- MIC [13, 33]: 64 µg/mL (≈ 133 µM)
- MIC [14, 48]: > 256 µg/mL
- MIC [15, 49]: > 256 µg/mL
- MIC [16, 34]: 4 µg/mL (≈ 8.29 µM)
- MIC [17, 50]: > 256 µg/mL
- MIC [18, 51]: > 256 µg/mL
- MIC [19, 52]: > 256 µg/mL
- MIC [20, 35]: > 256 µg/mL
- MIC [21, 36]: 0.5 µg/mL (≈ 1.04 µM)
- MIC [22, 37]: 1 µg/mL (≈ 2.07 µM)
- MIC [23, 38]: 32 µg/mL (≈ 66.3 µM)
- MIC [24, 39]: 32 µg/mL (≈ 66.3 µM)
- MIC [25, 40]: ≤ 0.12 µg/mL
- MIC [26, 41]: ≤ 0.12 µg/mL
- MIC [27, 42]: 2 µg/mL (≈ 4.14 µM)
- MIC [28, 43]: 1 µg/mL (≈ 2.07 µM)
